System: K-562 leukemia growth, % test/control
Assay: Anticancer human tumor K-562 cell line growth inhibition;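 also: spheroids exposed to compounds for 7 days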;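 as to viability, T/C: 100% = DMSO vehicle wells and lower values mean fewer viable cells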
Settings: spheroids with HUVEC and MSC; for IC50: curve of first compound; for viability, T/C: stronger effect = lower value
Outline: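 Drug combinations with the LSD1 inhibitor iadademstat tested on tumor cells co-cultured as spheroids with endothelial cells and mesenchymal stem cells. Concentrations descended in half-log increments from clinical Cmax or 10 microM.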

[1] = second compound 0.1 µM, first compound 0.00316 µM
[2] = second compound 0.1 µM, first compound 0.01 µM
[3] = second compound 0.1 µM, first compound 0.0316 µM
[4] = second compound 0.1 µM, first compound 0.1 µM
[5] = second compound 0.1 µM, first compound 0.316 µM
[6] = second compound 0.1 µM, first compound 1 µM
[7] = second compound 0.316 µM, first compound 0.00316 µM
[8] = second compound 0.316 µM, first compound 0.01 µM
[9] = second compound 0.316 µM, first compound 0.0316 µM
[10] = second compound 0.316 µM, first compound 0.1 µM
[11] = second compound 0.316 µM, first compound 0.316 µM
[12] = second compound 0.316 µM, first compound 1 µM
[13] = second compound 1 µM, first compound 0.00316 µM
[14] = second compound 1 µM, first compound 0.01 µM
[15] = second compound 1 µM, first compound 0.0316 µM
[16] = second compound 1 µM, first compound 0.1 µM
[17] = second compound 1 µM, first compound 0.316 µM
[18] = second compound 1 µM, first compound 1 µM
[19] = second compound 3.16 µM, first compound 0.00316 µM
[20] = second compound 3.16 µM, first compound 0.01 µM
[21] = second compound 3.16 µM, first compound 0.0316 µM
[22] = second compound 3.16 µM, first compound 0.1 µM
[23] = second compound 3.16 µM, first compound 0.316 µM
[24] = second compound 3.16 µM, first compound 1 µM
[25] = second compound 10 µM, first compound 0.00316 µM
[26] = second compound 10 µM, first compound 0.01 µM
[27] = second compound 10 µM, first compound 0.0316 µM
[28] = second compound 10 µM, first compound 0.1 µM
[29] = second compound 10 µM, first compound 0.316 µM
[30] = second compound 10 µM, first compound 1 µM

Work on `CC1COCCN1c1cc(-c2ccnn2C)c2ccnc(-c3ccn[nH]3)c2n1` (stereo not given) + NC1CCC(NC2CC2c2ccccc2)CC1 yielded an IC50 (second compound 0.1 µM) of 11.2 nM, an IC50 (second compound 0.316 µM) of 12.2 nM and an IC50 (second compound 1 µM) of 11.4 nM. The IC50 (second compound 3.16 µM) was 10.1 nM, the IC50 (second compound 10 µM) was 7.2 nM and the viability, T/C [1] was 90.4%. It also gave a viability, T/C [2] of 54.5%, a viability, T/C [3] of 10.2% and a viability, T/C [4] of 3.75%. For the same compound, the viability, T/C [5] was 2.62%, the viability, T/C [6] was 2.45% and the viability, T/C [7] was 91%. For the same compound, the viability, T/C [8] was 57.9%, the viability, T/C [9] was 12.9% and the viability, T/C [10] was 3.52%. It also gave a viability, T/C [11] of 2.63%, a viability, T/C [12] of 2.48% and a viability, T/C [13] of 92.7%. It also gave a viability, T/C [14] of 55.1%, a viability, T/C [15] of 9.5% and a viability, T/C [16] of 3.51%. It also gave a viability, T/C [17] of 2.76%, a viability, T/C [18] of 2.82% and a viability, T/C [19] of 92.2%. It also gave a viability, T/C [20] of 50.2%, a viability, T/C [21] of 11.5% and a viability, T/C [22] of 3.8%. The viability, T/C [23] was 3.16%, the viability, T/C [24] was 2.7% and the viability, T/C [25] was 83.3%. It also gave a viability, T/C [26] of 36.7%, a viability, T/C [27] of 8.26% and a viability, T/C [28] of 4.09%. It also gave a viability, T/C [29] of 2.75% and a viability, T/C [30] of 3.72%.

For `CC1COCCN1c1cc(C2(S(C)(=N)=O)CC2)nc(-c2ccnc3[nH]ccc23)n1` (stereo not given) + NC1CCC(NC2CC2c2ccccc2)CC1, the IC50 (second compound 0.1 µM) was 578 nM, the IC50 (second compound 0.316 µM) was 603 nM and the IC50 (second compound 1 µM) was 614 nM. For the same compound, the IC50 (second compound 3.16 µM) was 602 nM, the IC50 (second compound 10 µM) was 511 nM and the viability, T/C [3] was 101%. For the same compound, the viability, T/C [4] was 97.5%, the viability, T/C [5] was 81.8% and the viability, T/C [6] was 21.2%. It also gave a viability, T/C (second compound 0.1 µM, first compound 3.16 µM) of 3.64%, a viability, T/C (second compound 0.1 µM, first compound 10 µM) of 2.72% and a viability, T/C [9] of 104%. It also gave a viability, T/C [10] of 96.9%, a viability, T/C [11] of 84.5% and a viability, T/C [12] of 23.1%. The viability, T/C (second compound 0.316 µM, first compound 3.16 µM) was 4.12%, the viability, T/C (second compound 0.316 µM, first compound 10 µM) was 2.74% and the viability, T/C [15] was 106%. It also gave a viability, T/C [16] of 101%, a viability, T/C [17] of 86.2% and a viability, T/C [18] of 23.4%. For the same compound, the viability, T/C (second compound 1 µM, first compound 3.16 µM) was 3.81%, the viability, T/C (second compound 1 µM, first compound 10 µM) was 2.62% and the viability, T/C [21] was 103%. It also gave a viability, T/C [22] of 99.7%, a viability, T/C [23] of 84.5% and a viability, T/C [24] of 22.9%. The viability, T/C (second compound 3.16 µM, first compound 3.16 µM) was 3.69%, the viability, T/C (second compound 3.16 µM, first compound 10 µM) was 2.79% and the viability, T/C [27] was 96.6%. The viability, T/C [28] was 98.2%, the viability, T/C [29] was 73.2% and the viability, T/C [30] was 17.3%. It also gave a viability, T/C (second compound 10 µM, first compound 3.16 µM) of 3.62% and a viability, T/C (second compound 10 µM, first compound 10 µM) of 2.14%.

In the case of `Nc1ncn(C2CC(O)C(CO)S2)c(=O)n1` (stereo not given) + NC1CCC(NC2CC2c2ccccc2)CC1, the IC50 (second compound 0.1 µM) is reported as 175 nM, the IC50 (second compound 0.316 µM) is reported as 171 nM and the IC50 (second compound 1 µM) is reported as 148 nM. For the same compound, the IC50 (second compound 3.16 µM) was 136 nM, the IC50 (second compound 10 µM) was 60 nM and the viability, T/C (second compound 0.1 µM, first compound 0.000949 µM) was 102%. The viability, T/C (second compound 0.1 µM, first compound 0.003 µM) was 106%, the viability, T/C (second compound 0.1 µM, first compound 0.00949 µM) was 107% and the viability, T/C (second compound 0.1 µM, first compound 0.03 µM) was 95.6%. For the same compound, the viability, T/C (second compound 0.1 µM, first compound 0.0949 µM) was 69%, the viability, T/C (second compound 0.1 µM, first compound 0.3 µM) was 33.5% and the viability, T/C (second compound 0.316 µM, first compound 0.000949 µM) was 106%. The viability, T/C (second compound 0.316 µM, first compound 0.003 µM) was 108%, the viability, T/C (second compound 0.316 µM, first compound 0.00949 µM) was 108% and the viability, T/C (second compound 0.316 µM, first compound 0.03 µM) was 95.7%. For the same compound, the viability, T/C (second compound 0.316 µM, first compound 0.0949 µM) was 68%, the viability, T/C (second compound 0.316 µM, first compound 0.3 µM) was 33% and the viability, T/C (second compound 1 µM, first compound 0.000949 µM) was 108%. For the same compound, the viability, T/C (second compound 1 µM, first compound 0.003 µM) was 110%, the viability, T/C (second compound 1 µM, first compound 0.00949 µM) was 107% and the viability, T/C (second compound 1 µM, first compound 0.03 µM) was 94.3%. It also gave a viability, T/C (second compound 1 µM, first compound 0.0949 µM) of 65.2%, a viability, T/C (second compound 1 µM, first compound 0.3 µM) of 26.6% and a viability, T/C (second compound 3.16 µM, first compound 0.000949 µM) of 108%. It also gave a viability, T/C (second compound 3.16 µM, first compound 0.003 µM) of 111%, a viability, T/C (second compound 3.16 µM, first compound 0.00949 µM) of 106% and a viability, T/C (second compound 3.16 µM, first compound 0.03 µM) of 89.2%. The viability, T/C (second compound 3.16 µM, first compound 0.0949 µM) was 60.3%, the viability, T/C (second compound 3.16 µM, first compound 0.3 µM) was 28.4% and the viability, T/C (second compound 10 µM, first compound 0.000949 µM) was 102%. It also gave a viability, T/C (second compound 10 µM, first compound 0.003 µM) of 107%, a viability, T/C (second compound 10 µM, first compound 0.00949 µM) of 95.9% and a viability, T/C (second compound 10 µM, first compound 0.03 µM) of 70.7%. For the same compound, the viability, T/C (second compound 10 µM, first compound 0.0949 µM) was 36.5% and the viability, T/C (second compound 10 µM, first compound 0.3 µM) was 18.6%.

For `O=C(C=Cn1cnc(-c2cc(C(F)(F)F)cc(C(F)(F)F)c2)n1)NNc1cnccn1` + NC1CCC(NC2CC2c2ccccc2)CC1, the IC50 (second compound 0.1 µM) was 59.8 nM, the IC50 (second compound 0.316 µM) was 58.9 nM and the IC50 (second compound 1 µM) was 61 nM. The IC50 (second compound 3.16 µM) was 60.6 nM, the IC50 (second compound 10 µM) was 43.1 nM and the viability, T/C [1] was 104%. The viability, T/C [2] was 92.3%, the viability, T/C [3] was 69.5% and the viability, T/C [4] was 36.6%. It also gave a viability, T/C [5] of 4.19%, a viability, T/C [6] of 1.72% and a viability, T/C [7] of 107%. It also gave a viability, T/C [8] of 92%, a viability, T/C [9] of 69.2% and a viability, T/C [10] of 36.5%. For the same compound, the viability, T/C [11] was 4.44%, the viability, T/C [12] was 1.67% and the viability, T/C [13] was 107%. For the same compound, the viability, T/C [14] was 91.5%, the viability, T/C [15] was 70% and the viability, T/C [16] was 38.2%. For the same compound, the viability, T/C [17] was 4.8%, the viability, T/C [18] was 2.29% and the viability, T/C [19] was 103%. For the same compound, the viability, T/C [20] was 92.5%, the viability, T/C [21] was 67.8% and the viability, T/C [22] was 38.8%. The viability, T/C [23] was 4.71%, the viability, T/C [24] was 1.78% and the viability, T/C [25] was 88.8%. The viability, T/C [26] was 75.1%, the viability, T/C [27] was 57.1% and the viability, T/C [28] was 33.7%. For the same compound, the viability, T/C [29] was 3.55% and the viability, T/C [30] was 2.29%.
